{
  "source": "patent US4661297A",
  "about": "“Basic ethers of 7-oxo-7H-benzo(c) fluorene and a process for their production” (SPOFA, spojene podniky pro zdravotnickou vyrobu, priority 1980, dated 1987)",
  "key": {"[1]": {"test_system": "La leukaemia", "test": "Effect on course of transplanted La leukaemia in mice", "assay_type": "in vivo, mouse (C57 Bl)", "description": "(§1) The therapeutic effect of the described compounds on transplanted tumors in experimental animals is shown in Tables 1-3, on the following five pages.\n(§2) &=statistically significant differences versus control at P=0.05\nLa: La leukaemia in mice C57 Bl"}, "[2]": {"test_system": "Yoshida's Tumor", "test": "Inhibition of incorporation of labelled substrates in Yoshida's tumor", "assay_type": "cell-based", "settings": "Rattus norvegicus, (U-14C) amino acid mixture, Table VI, read-out: IC50 (concentration lowering initial rate of 14C incorporation to 50% of control)", "description": "Tumor growth may be observed clinically or in experiments in vivo, that is, with experimental animals, or in vitro, for example, in tissue cultures prepared from tumors. Assessment of tumor growth may be effected by measuring the weight of the tumor mass or, more effectively, by measuring the radioactivity after incorporation therein of certain substances of natural origin such as amino acids, adenine, thymidine and the like labelled with radioactive atoms such as ^14 C, ^3 H, etc.\nThus, by way of exemplification, the IC^50 values (inhibitory concentration which lowered the initial rate of ^14 C incorporation to 50% of control) are shown in Table VI, below (Yoshida's Tumor, (U-^14 C) amino acid mixture)\nThe ^IC 50 values of compound 13468 are also shown in Table VII with varying substrates."}, "[3]": {"test_system": "Yoshida's ascitic tumor", "test": "Effect on course of transplanted Yoshida's ascitic tumor in rats", "assay_type": "in vivo, rat (Wistar)", "settings": "for % of animals surviving day 35 after transplantation: control K = 0%", "description": "as §1, §2\nY: Yoshida's ascitic tumor in Wistar rats"}, "[4]": {"test_system": "L1210 leukaemia", "test": "Effect on course of transplanted L1210 leukaemia in mice", "assay_type": "in vivo, mouse (hybrid DBA/H)", "settings": "days 1;5;8;12;15;19", "description": "as §1, §2\nL1210 : Leukaemia growing in the form of ascitic tumors in hybrid DBA/H mice"}, "[5]": {"test_system": "EST: Ehrlich's solid tumor", "test": "Effect on course of transplanted Ehrlich's solid tumor in mice", "assay_type": "in vivo, mouse (H)", "settings": "days 5,7,9,12; for Relative tumour size (% of control value): assessed day 14", "description": "as §1, §2\nEST: Ehrlich's solid tumor in H mice"}, "[6]": {"test_system": "Kr2: Krebs' ascitic tumor", "test": "Effect on course of transplanted Krebs' ascitic tumor in mice", "assay_type": "in vivo, mouse (H)", "settings": "p.o. 2×150 mg/kg, days 1,8, significant (&)", "description": "as §1, §2\nKr2 : Krebs' ascitic tumor in H mice"}, "[7]": {"test_system": "HK: solid tumors, originally spontaneous mammary-gland adenocarcinoma", "test": "Effect on course of transplanted HK solid mammary-gland adenocarcinoma in mice", "assay_type": "in vivo, mouse (H)", "settings": "for Relative tumour size (% of control value): assessed day 14", "description": "as §1, §2\nHK: Solid tumors, originally spontaneous mammary-gland adenocarcinoma in H mice"}, "[8]": {"test": "Acute toxicity in mice", "settings": "mouse, in vivo, sc; subcutaneously; mice S, males 22-24 gram", "description": "The anti-tumor compounds described herein have also been studied from the standpoint of toxicity and the conclusion drawn that they are not toxic to mammalian hosts. The toxicological data set forth in Table IX, below, supports this conclusion."}, "[9]": {"test_system": "Sa37 ascitic tumor", "test": "Effect on course of transplanted Sa37 ascitic tumor in mice", "assay_type": "in vivo, mouse (H)", "settings": "p.o. 3×75 mg/kg, days 1,4,7", "description": "as §1, §2\nSa37 : Ascitic tumors in H mice"}, "[10]": {"settings": "o. (oral) 3×50 mg/kg, days 1,4,8, significant (&)"}, "[11]": {"settings": "o. (oral) 3×75 mg/kg, days 1,4,8, significant (&)"}, "[12]": {"settings": "p.o. 4×100 mg/kg, significant (&)"}, "[13]": {"settings": "p.o. 2×150 mg/kg, days 5,12, significant (&)"}, "[14]": {"settings": "p.o. 4×100 mg/kg, days 5,7,9,12, significant (&)"}},
  "data": [
    {"molecule": "CN(C)CCCOc1cc2c(c3ccccc13)-c1ccccc1C2=O.Cl", "note": "[compound 13466, 5-(3-Dimethylaminopropoxy)-7-oxo-7H-benzo(c) fluorene hydrochloride]", "values": [
      {"measurement": "Survival time of animals with respect to median", "setting": "[1]; s.c. 1×200 mg/kg, day 3 after transplantation, significant vs control (&, P=0.05)", "value": 113, "unit": "%"},
      {"measurement": "Survival time of animals with respect to median", "setting": "[1]; s.c. 1×250 mg/kg, day 3, significant (&)", "value": 500, "unit": "%"},
      {"measurement": "IC50", "setting": "[2]", "value": 120, "unit": "µM"},
      {"measurement": "% of animals surviving day 35 after transplantation", "setting": "[3]; [10]", "value": 50, "unit": "%"},
      {"measurement": "Survival time of animals with respect to geom. mean", "setting": "[3]; [10]", "value": 152, "unit": "%"},
      {"measurement": "% of animals surviving day 35 after transplantation", "setting": "[3]; [11]", "value": 40, "unit": "%"},
      {"measurement": "Survival time of animals with respect to geom. mean", "setting": "[3]; [11]", "value": 140, "unit": "%"},
      {"measurement": "Survival time of animals with respect to geom. mean", "setting": "[3]; o. (oral) 5×100 mg/kg, days 1-5, Table III, significant (&)", "value": 135, "unit": "%"},
      {"measurement": "Survival time of animals with respect to geom. mean", "setting": "[3]; o. (oral) 5×100 mg/kg, days 1-5, Tables I and II, significant (&)", "value": 135, "unit": "%"},
      {"measurement": "Survival time of animals with respect to geom. mean", "setting": "[3]; s.c. 5×50 mg/kg, days 1-5, Table III, marked ^", "value": 103, "unit": "%"},
      {"measurement": "Survival time of animals with respect to geom. mean", "setting": "[3]; s.c. 5×50 mg/kg, days 1-5, Tables I and II, significant (&)", "value": 177, "unit": "%"},
      {"measurement": "Survival time of animals with respect to median", "setting": "[4]; s.c. 6×50 mg/kg, significant (&)", "value": 117, "unit": "%"},
      {"measurement": "Survival time of animals with respect to median", "setting": "[4]; s.c. 6×75 mg/kg, significant (&)", "value": 142, "unit": "%"},
      {"measurement": "Survival time of animals with respect to median", "setting": "[4]; s.c. 6×100 mg/kg, significant (&)", "value": 142, "unit": "%"},
      {"measurement": "Survival time of animals with respect to median", "setting": "[4]; s.c. 6×125 mg/kg, marked ^", "value": 168, "unit": "%"},
      {"measurement": "Relative tumour size (% of control value)", "setting": "[5]; p.o. 4×50 mg/kg, marked ^", "value": 77, "unit": "%"},
      {"measurement": "Survival time of animals with respect to geom. mean", "setting": "[5]; p.o. 4×50 mg/kg, significant (&)", "value": 135, "unit": "%"},
      {"measurement": "Relative tumour size (% of control value)", "setting": "[5]; [12]", "value": 70, "unit": "%"},
      {"measurement": "Survival time of animals with respect to geom. mean", "setting": "[5]; [12]", "value": 134, "unit": "%"},
      {"measurement": "Relative tumour size (% of control value)", "setting": "[6]; assessed day 10", "value": 62, "unit": "%"},
      {"measurement": "Survival time of animals with respect to geom. mean", "setting": "[6]", "value": 128, "unit": "%"},
      {"measurement": "Survival time of animals with respect to geom. mean", "setting": "[7]; o. (oral) 8×50 mg/kg, days 5-10,12,13, Table I, significant (&)", "value": 131, "unit": "%"},
      {"measurement": "Relative tumour size (% of control value)", "setting": "[7]; o. (oral) 8×50 mg/kg, days 5-10,12,13, Table I", "value": 82, "unit": "%"},
      {"measurement": "Relative tumour size (% of control value)", "setting": "[7]; o. (oral) 8×100 mg/kg, days 5-10,12,13", "value": 76, "unit": "%"},
      {"measurement": "Survival time of animals with respect to geom. mean", "setting": "[7]; o. (oral) 8×100 mg/kg, days 5-10,12,13, significant (&)", "value": 112, "unit": "%"},
      {"measurement": "Relative tumour size (% of control value)", "setting": "[7]; [13]", "value": 65, "unit": "%"},
      {"measurement": "Survival time of animals with respect to geom. mean", "setting": "[7]; [13]", "value": 123, "unit": "%"},
      {"measurement": "Relative tumour size (% of control value)", "setting": "[7]; [14]", "value": 48, "unit": "%"},
      {"measurement": "Survival time of animals with respect to geom. mean", "setting": "[7]; [14]", "value": 125, "unit": "%"},
      {"measurement": "Survival time of animals with respect to geom. mean", "setting": "[7]; p.o. 8×50 mg/kg, days 5-10,12,13, Table III, marked ^", "value": 102, "unit": "%"},
      {"measurement": "Relative tumour size (% of control value)", "setting": "[7]; p.o. 8×50 mg/kg, days 5-10,12,13, Table III, significant (&)", "value": 73, "unit": "%"},
      {"measurement": "Survival time of animals with respect to geom. mean", "setting": "[7]; s.c. 8×50 mg/kg, days 5-10,12,13, Table I, significant (&)", "value": 121, "unit": "%"},
      {"measurement": "Survival time of animals with respect to geom. mean", "setting": "[7]; s.c. 8×50 mg/kg, days 5-10,12,13, Table III, marked ^", "value": 107, "unit": "%"},
      {"measurement": "Relative tumour size (% of control value)", "setting": "[7]; s.c. 8×50 mg/kg, days 5-10,12,13, Table I", "value": 66, "unit": "%"},
      {"measurement": "Relative tumour size (% of control value)", "setting": "[7]; s.c. 8×50 mg/kg, days 5-10,12,13, Table III, significant (&)", "value": 58, "unit": "%"},
      {"measurement": "LD50", "setting": "[8]", "value": 320, "unit": "mg/kg"},
      {"measurement": "Relative tumour size (% of control value)", "setting": "[9]; assessed day 10, marked ^", "value": 92, "unit": "%"},
      {"measurement": "Survival time of animals with respect to geom. mean", "setting": "[9]; significant (&)", "value": 123, "unit": "%"}
    ]}
  ]
}
